Results as given in US7786287B2, “Hepatitis C virus assay systems” (priority 2002, dated 2010).

Target: T1, beta-lactamase (Escherichia coli, UniProt P62593, A182V/V82I)
T1 construct: HCV core N-terminal partial region (first 12 codons, about 36 nucleotides of core), then a 3-residue linker (Gly-Arg-Ala) and an added Met before His24 of the enzyme; expressed in transfected cells; host or cells: replicon-enhanced Huh-7 cells transfected with HCV replicon RNA encoding beta-lactamase
Test: HCV replicon beta-lactamase assay: signal-to-background with clavulanic acid
Format: cell-based
Conditions: for Δ: 1.23 at 0.00 μM, Δ not defined; for S/B: 3.5 at 0.00 μM
Protocol: Clavulanic acid can be used to enhance the signal-to-background ratio from the beta-lactamase reporter system wherein, a larger signal to noise ratio facilitates detection of HCV replication inhibitors by better reflecting changes in the intracellular concentration of beta-lactamase.
Prior to use, frozen cells are thawed fresh in the morning of the assay or the day before and diluted in pre-warmed media to 40,000 cells/ml. Cell suspension (50 μl) is plated into 384-well micro-titer plates. The cells are allowed to recover for at least 6 hours at 37° C. in the plates before beginning an assay. 1 μl of 25 μM clavulanic acid in PBS and 0.25 μl of 500 μM test compounds in DMSO are added to the cells. The assay cell plates are then incubated for 24 hours at 37° C. To the assay plate, 10 μl of 6×CCF4/AM substrate in loading buffer is added with a Multidrop (Labsystems), and the plate incubated for 90 minutes at ambient temperature. The plate is then read from the bottom on a Teacn Spectrafluor Plus (340 nm excitation, 460 nm and 530 nm emissions).
In the example described below, clavulanic acid is present throughout the assay at a concentration that slightly reduces beta-lactamase activity instead of using it at high concentration that would complete inhibit beta-lactamase activity.
Table 2 provides results obtained using different concentrations of clavulanic acid and an HCV NS5B inhibitor.

O=C(O)[C@H]1/C(=C/CO)O[C@@H]2CC(=O)N21 [clavulanic acid]
Δ ([CA] 0.13 μM): 1.22 | S/B ([CA] 0.13 μM): 5.7 | Δ ([CA] 0.25 μM): 1.17 | S/B ([CA] 0.25 μM): 6.0 | Δ ([CA] 0.50 μM): 0.97 | S/B ([CA] 0.50 μM): 6.3 | Δ ([CA] 1.00 μM): 0.81 | S/B ([CA] 1.00 μM): 5.4
